# Reference: patent US20210300924A1, “5-[6-[[3-(4,5,6,7-TETRAHYDROPYRAZOLO[4,3-C]PYRIDIN-1-YL)AZETIDIN-1-YL]METHYL]MORPHOLIN-4-YL]QUINOLINE-8-CARBONITRILE DERIVATIVES AND SIMILAR COMPOUNDS AS TLR7-9 ANTAGONISTS FOR TREATING SYSTEMIC LUPUS ERYTHEMATOSUS” (Hoffmann-La Roche Inc., priority 2018, published 2021)
# Molecular target: T1, human TLR8 (Homo sapiens, UniProt Q9NR97)
# T1 construct: host or cells: HEK293 (HEK-Blue hTLR8)
# T1 sequence (Q9NR97 27-1041): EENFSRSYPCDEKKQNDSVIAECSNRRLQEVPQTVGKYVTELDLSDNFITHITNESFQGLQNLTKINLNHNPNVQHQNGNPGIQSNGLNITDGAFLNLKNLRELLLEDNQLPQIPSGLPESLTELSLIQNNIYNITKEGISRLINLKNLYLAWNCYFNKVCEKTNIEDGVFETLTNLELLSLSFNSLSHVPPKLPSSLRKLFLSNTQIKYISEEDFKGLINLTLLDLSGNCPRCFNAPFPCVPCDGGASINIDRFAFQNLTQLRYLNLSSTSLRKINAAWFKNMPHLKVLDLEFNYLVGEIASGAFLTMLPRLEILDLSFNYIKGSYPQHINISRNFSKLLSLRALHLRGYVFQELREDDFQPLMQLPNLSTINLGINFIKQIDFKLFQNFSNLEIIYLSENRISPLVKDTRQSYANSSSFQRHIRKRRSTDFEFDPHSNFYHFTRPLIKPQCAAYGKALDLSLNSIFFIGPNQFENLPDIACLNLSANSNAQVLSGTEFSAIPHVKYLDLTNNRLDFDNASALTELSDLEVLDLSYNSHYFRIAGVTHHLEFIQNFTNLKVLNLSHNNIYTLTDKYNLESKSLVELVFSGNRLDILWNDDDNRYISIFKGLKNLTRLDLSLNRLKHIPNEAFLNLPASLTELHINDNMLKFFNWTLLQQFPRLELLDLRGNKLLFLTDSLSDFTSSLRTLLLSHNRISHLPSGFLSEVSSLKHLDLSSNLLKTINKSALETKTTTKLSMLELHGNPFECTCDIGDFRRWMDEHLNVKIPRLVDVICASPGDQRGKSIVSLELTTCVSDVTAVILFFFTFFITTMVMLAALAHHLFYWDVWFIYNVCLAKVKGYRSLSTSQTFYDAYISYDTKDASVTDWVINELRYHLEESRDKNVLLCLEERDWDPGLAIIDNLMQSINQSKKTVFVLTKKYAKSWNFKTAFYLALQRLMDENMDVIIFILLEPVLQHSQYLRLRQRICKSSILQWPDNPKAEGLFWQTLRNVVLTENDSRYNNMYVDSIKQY
# Test: HEK293-Blue-hTLR-8 cells assay
# Type: cell-based
# Details: HEK293-Blue-hTLR8 cells, R848 stimulation, 20 hrs, SEAP reporter; read-out: HEK/hTLR8 IC50
# Description: A stable HEK293-Blue-hTLR-8 cell line was purchased from InvivoGen (Cat. #: hkb-htlr8, San Diego, Calif., USA). These cells were originally designed for studying the stimulation of human TLR8 by monitoring the activation of NF-κB. A SEAP (secreted embryonic alkaline phosphatase) reporter gene was placed under the control of the IFN-β minimal promoter fused to five NF-κB and AP-1-binding sites. The SEAP was induced by activating NF-κB and AP-1 via stimulating HEK-Blue hTLR8 cells with TLR8 ligands. Therefore the reporter expression was declined by TLR8 antagonist under the stimulation of a ligand, such as R848, for incubation of 20 hrs. The cell culture supernatant SEAP reporter activity was determined using QUANTI-Blue™ kit (Cat. #: rep-qb1, Invivogen, San Diego, Ca, USA) at a wavelength of 640 nm, a detection medium that turns purple or blue in the presence of alkaline phosphatase.
# HEK293-Blue-hTLR8 cells were incubated at a density of 250,000-450,000 cells/mL in a volume of 170 μL in a 96-well plate in Dulbecco's Modified Eagle's medium (DMEM) containing 4.5 g/L glucose, 50 U/mL penicillin, […], […], 2 mM L-glutamine, 10% (v/v) heat-inactivated fetal bovine serum with addition of 20 μL test compound in a serial dilution in the presence of final DMSO at 1% and 10 μL of 60 uM R848 in above DMEM, perform incubation under 37° C. in a CO2 incubator for 20 hrs. Then 20 μL of the supernatant from each well was incubated with […] Quanti-blue substrate solution at 37° C. for 2 hrs and the absorbance was read at 620-655 nm using a spectrophotometer. The signaling pathway that TLR8 activation leads to downstream NF-κB activation has been widely accepted, and therefore similar reporter assay was modified for evaluating TLR8 antagonist.
row,Compound,IC50 [nM]
1,"C[C@@H]1CN(c2ccc(C#N)c3ncccc23)C[C@H](CN2CC(n3cc4c(n3)[C@H](C)CNC4)C2)O1 (single isomer, unassigned) [Example 25]",11
2,"C[C@@H]1CN(c2ccc(C#N)c3ncccc23)C[C@H](CN2CC(n3cc4c(n3)[C@@H](C)CNC4)C2)O1 (single isomer, unassigned) [Example 26]",12
3,"C[C@@H]1CN(c2ccc(C#N)c3ncccc23)C[C@H](CN2CC(n3ncc4c3CCNC4)C2)O1 [Example 1, 5-[(2R,6S)-2-methyl-6-[[3-(4,5,6,7-tetrahydropyrazolo[4,3-c]pyridin-1-yl)azetidin-1-yl]methyl]morpholin-4-yl]quinoline-8-carbonitrile]",17
4,"C[C@@H]1CN(c2ccc(C#N)c3ncccc23)C[C@H](CN2CC(n3cc4c(n3)CCNC4)C2)O1 [Example 2, 5-[(2R,6S)-2-methyl-6-[[3-(4,5,6,7-tetrahydropyrazolo[4,3-c]pyridin-2-yl)azetidin-1-yl]methyl]morpholin-4-yl]quinoline-8-carbonitrile]",19
5,"C[C@@H]1CN(c2ccc(C#N)c3ncccc23)C[C@H](CN2CC(n3ncc4c3CNCC4)C2)O1 [Example 3, 5-[(2R,6S)-2-methyl-6-[[3-(4,5,6,7-tetrahydropyrazolo[3,4-c]pyridin-1-yl)azetidin-1-yl]methyl]morpholin-4-yl]quinoline-8-carbonitrile]",6
6,"C[C@@H]1CN(c2ccc(C#N)c3ncccc23)C[C@H](CN2CC(n3cc4c(n3)CNCC4)C2)O1 [Example 4, 5-[(2R,6S)-2-methyl-6-[[3-(4,5,6,7-tetrahydropyrazolo[3,4-c]pyridin-2-yl)azetidin-1-yl]methyl]morpholin-4-yl]quinoline-8-carbonitrile]",9
7,"C[C@@H]1CN(c2ccc(C#N)c3ncccc23)C[C@H](CN2CC(n3cc4c(n3)CN(C)CC4)C2)O1 [Example 5, 5-[(2R,6S)-2-methyl-6-[[3-(6-methyl-5,7-dihydro-4H-pyrazolo[3,4-c]pyridin-2-yl)azetidin-1-yl]methyl]morpholin-4-yl]quinoline-8-carbonitrile]",6
8,"CCN1CCc2cnn(C3CN(C[C@H]4CN(c5ccc(C#N)c6ncccc56)C[C@@H](C)O4)C3)c2C1 [Example 6, 5-[(2S,6R)-2-[[3-(6-ethyl-5,7-dihydro-4H-pyrazolo[3,4-c]pyridin-1-yl)azetidin-1-yl]methyl]-6-methyl-morpholin-4-yl]quinoline-8-carbonitrile]",5
9,"CCN1CCc2cn(C3CN(C[C@H]4CN(c5ccc(C#N)c6ncccc56)C[C@@H](C)O4)C3)nc2C1 [Example 7, 5-[(2S,6R)-2-[[3-(6-ethyl-5,7-dihydro-4H-pyrazolo[3,4-c]pyridin-2-yl)azetidin-1-yl]methyl]-6-methyl-morpholin-4-yl]quinoline-8-carbonitrile]",5
10,"CC(C)N1CCc2cnn(C3CN(C[C@H]4CN(c5ccc(C#N)c6ncccc56)C[C@@H](C)O4)C3)c2C1 [Example 8, 5-[(2S,6R)-2-[[3-(6-isopropyl-5,7-dihydro-4H-pyrazolo[3,4-c]pyridin-1-yl)azetidin-1-yl]methyl]-6-methyl-morpholin-4-yl]quinoline-8-carbonitrile]",5
11,"CC(C)N1CCc2cn(C3CN(C[C@H]4CN(c5ccc(C#N)c6ncccc56)C[C@@H](C)O4)C3)nc2C1 [Example 9, 5-[(2S,6R)-2-[[3-(6-isopropyl-5,7-dihydro-4H-pyrazolo[3,4-c]pyridin-2-yl)azetidin-1-yl]methyl]-6-methyl-morpholin-4-yl]quinoline-8-carbonitrile]",7
12,"C[C@@H]1CN(c2ccc(C#N)c3ncccc23)C[C@H](CN2CC(n3ncc4c3CNC4)C2)O1 [Example 10, 5-[(2S,6R)-2-[[3-(5,6-dihydro-4H-pyrrolo[3,4-c]pyrazol-1-yl)azetidin-1-yl]methyl]-6-methyl-morpholin-4-yl]quinoline-8-carbonitrile]",19
13,"C[C@@H]1CN(c2ccc(C#N)c3ncccc23)C[C@H](CN2CC(n3cc4c(n3)CNC4)C2)O1 [Example 11, 5-[(2S,6R)-2-[[3-(5,6-dihydro-4H-pyrrolo[3,4-c]pyrazol-2-yl)azetidin-1-yl]methyl]-6-methyl-morpholin-4-yl]quinoline-8-carbonitrile]",19
14,"Cc1nn(C2CN(C[C@H]3CN(c4ccc(C#N)c5ncccc45)C[C@@H](C)O3)C2)c2c1CNCC2 [Example 12, 5-[(2R,6S)-2-methyl-6-[[3-(3-methyl-4,5,6,7-tetrahydropyrazolo[4,3-c]pyridin-1-yl)azetidin-1-yl]methyl]morpholin-4-yl]quinoline-8-carbonitrile]",44
15,"Cc1c2c(nn1C1CN(C[C@H]3CN(c4ccc(C#N)c5ncccc45)C[C@@H](C)O3)C1)CCNC2 [Example 13, 5-[(2R,6S)-2-methyl-6-[[3-(3-methyl-4,5,6,7-tetrahydropyrazolo[4,3-c]pyridin-2-yl)azetidin-1-yl]methyl]morpholin-4-yl]quinoline-8-carbonitrile]",45
16,"Cc1nn(C2CN(C[C@H]3CN(c4ccc(C#N)c5ncccc45)C[C@@H](C)O3)C2)c2c1CN(C)CC2 [Example 14, 5-[(2S,6R)-2-[[3-(3,5-dimethyl-6,7-dihydro-4H-pyrazolo[4,3-c]pyridin-1-yl)azetidin-1-yl]methyl]-6-methyl-morpholin-4-yl]quinoline-8-carbonitrile]",10
17,"Cc1c2c(nn1C1CN(C[C@H]3CN(c4ccc(C#N)c5ncccc45)C[C@@H](C)O3)C1)CCN(C)C2 [Example 15, 5-[(2S,6R)-2-[[3-(3,5-dimethyl-6,7-dihydro-4H-pyrazolo[4,3-c]pyridin-2-yl)azetidin-1-yl]methyl]-6-methyl-morpholin-4-yl]quinoline-8-carbonitrile]",9

# Next, values leading:
row,IC50 [nM],Compound
1,8,"C[C@@H]1CN(c2ccc(C#N)c3ncccc23)C[C@H](CN2CC(n3ncc4c3CN[C@@H](C)C4)C2)O1 (single isomer, unassigned) [Example 27]"
2,10,"C[C@@H]1Cc2cnn(C3CN(C[C@H]4CN(c5ccc(C#N)c6ncccc56)C[C@@H](C)O4)C3)c2CN1 (single isomer, unassigned) [Example 28]"
3,11,"C[C@@H]1CN(c2ccc(C#N)c3ncccc23)C[C@H](CN2CC(n3cc4c(n3)CN[C@@H](C)C4)C2)O1 (single isomer, unassigned) [Example 29]"
4,14,"C[C@@H]1Cc2cn(C3CN(C[C@H]4CN(c5ccc(C#N)c6ncccc56)C[C@@H](C)O4)C3)nc2CN1 (single isomer, unassigned) [Example 30]"
5,5,"C[C@@H]1CN(c2ccc(C#N)c3ncccc23)C[C@H](CN2CC(n3ncc4c3[C@@H](C)NCC4)C2)O1 (single isomer, unassigned) [Example 31]"
6,10,"C[C@@H]1CN(c2ccc(C#N)c3ncccc23)C[C@H](CN2CC(n3ncc4c3[C@H](C)NCC4)C2)O1 (single isomer, unassigned) [Example 32]"
7,13,"C[C@@H]1CN(c2ccc(C#N)c3ncccc23)C[C@H](CN2CC(n3cc4c(n3)[C@@H](C)NCC4)C2)O1 (single isomer, unassigned) [Example 33]"
8,16,"C[C@@H]1CN(c2ccc(C#N)c3ncccc23)C[C@H](CN2CC(n3cc4c(n3)[C@H](C)NCC4)C2)O1 (single isomer, unassigned) [Example 34]"
